Experimental data: patent US7855213B2 (AstraZeneca AB, priority 2006, dated 2010)
Counter-ions that a name gives are not always drawn.

Target: T1, human β-Secretase (Homo sapiens, UniProt P56817)
T1 construct: The soluble part of the human β-Secretase (AA 1-AA 460) was cloned; made in house
Test: TR-FRET assay
Assay type: biochemical

T1 sequence (P56817 22-460): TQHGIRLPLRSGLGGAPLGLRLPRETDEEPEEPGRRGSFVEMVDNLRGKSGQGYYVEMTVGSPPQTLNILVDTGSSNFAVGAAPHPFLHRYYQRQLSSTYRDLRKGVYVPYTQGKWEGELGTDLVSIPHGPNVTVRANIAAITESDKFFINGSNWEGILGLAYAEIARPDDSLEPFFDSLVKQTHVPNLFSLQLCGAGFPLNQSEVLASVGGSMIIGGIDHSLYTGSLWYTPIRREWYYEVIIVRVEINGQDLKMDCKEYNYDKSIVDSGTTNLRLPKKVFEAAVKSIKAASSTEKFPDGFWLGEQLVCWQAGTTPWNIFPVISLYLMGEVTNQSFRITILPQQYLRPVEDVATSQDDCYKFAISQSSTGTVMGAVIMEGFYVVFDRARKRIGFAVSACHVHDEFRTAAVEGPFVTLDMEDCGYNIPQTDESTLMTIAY

Compound	IC50 [nM]
COc1ccc(C#N)c(-c2cccc(C3(C4CC4)N=C(N)c4ccccc43)c2)c1 (stereo not drawn) [Example 91, 3′-(3-Amino-1-cyclopropyl-1H-isoindol-1-yl)-5-methoxybiphenyl-2-carbonitrile acetate]	413
NC1=NC(c2cccc(-c3cncnc3)c2)(C2CC2)c2ccccc21 (stereo not drawn) [Example 92, 1-Cyclopropyl-1-(3-pyrimidin-5-ylphenyl)-1H-isoindol-3-amine acetate]	270
COc1ccc(C#N)c(-c2cccc(C3(C)N=C(N)c4ccccc43)c2)c1 (stereo not drawn) [Example 93, 3′-(3-Amino-1-methyl-1H-isoindol-1-yl)-5-methoxybiphenyl-2-carbonitrile acetate]	4350
CC1(c2cccc(-c3cc(Cl)cc(Cl)c3)c2)N=C(N)c2ccccc21 (stereo not drawn) [Example 94, 1-(3′,5′-Dichlorobiphenyl-3-yl)-1-methyl-1H-isoindol-3-amine hydrochloride]	880
CC1(c2cccc(-c3cncnc3)c2)N=C(N)c2ccccc21 (stereo not drawn) [Example 95, 1-Methyl-1-(3-pyrimidin-5-ylphenyl)-1H-isoindol-3-amine acetate]	2010
CC1(c2cccc(-c3cccnc3F)c2)N=C(N)c2ccccc21 (stereo not drawn) [Example 96, 1-[3-(2-Fluoropyridin-3-yl)phenyl]-1-methyl-1H-isoindol-3-amine acetate]	2200
CC(C)C1(c2cccc(-c3cncnc3)c2)N=C(N)c2ccccc21 (stereo not drawn) [Example 97, 1-Isopropyl-1-(3-pyrimidin-5-ylphenyl)-1H-isoindol-3-amine acetate]	1000
CC1(c2cccc(-c3cncc(F)c3)c2)N=C(N)c2ccccc21 (stereo not drawn) [Example 98, 1-[3-(5-Fluoropyridin-3-yl)phenyl]-1-methyl-1H-isoindol-3-amine acetate]	2000
COc1cccc(-c2cc(C3(c4ccncc4F)N=C(N)c4ccccc43)ccc2F)c1F (stereo not drawn) [Example 101, 1-(2′,6-Difluoro-3′-methoxybiphenyl-3-yl)-1-(3-fluoropyridin-4-yl)-1H-isoindol-3-amine]	230
N#Cc1cncc(-c2cccc(C3(c4ccncc4F)N=C(N)c4ccccc43)c2)c1 (stereo not drawn) [Example 102, 5-{3-[3-Amino-1-(3-fluoropyridin-4-yl)-1H-isoindol-1-yl]phenyl}nicotinonitrile]	310
NC1=NC(c2ccncc2)(c2ccc(F)c(-c3cccnc3F)c2)c2ccccc21 (stereo not drawn) [Example 105, 1-[4-Fluoro-3-(2-fluoropyridin-3-yl)phenyl]-1-pyridin-4-yl-1H-isoindol-3-amine]	29
COc1ncc(C2(c3cccc(-c4cccnc4F)c3)N=C(N)c3ccccc32)cn1 (stereo not drawn) [Example 107, 1-[3-(2-Fluoropyridin-3-yl)phenyl]-1-(2-methoxypyrimidin-5-yl)-1H-isoindol-3-amine]	440
COc1ncc(C2(c3cccc(-c4cncnc4)c3)N=C(N)c3ccccc32)cn1 (stereo not drawn) [Example 108, 1-(2-Methoxypyrimidin-5-yl)-1-(3-pyrimidin-5-ylphenyl)-1H-isoindol-3-amine]	970
COc1ncc(C2(c3cccc(-c4cccc(OC)c4F)c3)N=C(N)c3ccccc32)cn1 (stereo not drawn) [Example 109, 1-(2′-Fluoro-3′-methoxybiphenyl-3-yl)-1-(2-methoxypyrimidin-5-yl)-1H-isoindol-3-amine]	750
CCc1cc(C2(c3cccc(-c4cncnc4)c3)N=C(N)c3ccccc32)ccn1 (stereo not drawn) [Example 111, 1-(2-Ethylpyridin-4-yl)-1-(3-pyrimidin-5-ylphenyl)-1H-isoindol-3-amine]	95
CCc1cc(C2(c3cccc(-c4cccnc4F)c3)N=C(N)c3ccccc32)ccn1 (stereo not drawn) [Example 112, 1-(2-Ethylpyridin-4-yl)-1-[3-(2-fluoropyridin-3-yl)phenyl]-1H-isoindol-3-amine]	96
CC(C)c1cc(C2(c3cccc(-c4cncnc4)c3)N=C(N)c3ccccc32)ccn1 (stereo not drawn) [Example 114, 1-(2-Isopropylpyridin-4-yl)-1-(3-pyrimidin-5-ylphenyl)-1H-isoindol-3-amine]	300
CC(C)c1cc(C2(c3cccc(-c4cccnc4F)c3)N=C(N)c3ccccc32)ccn1 (stereo not drawn) [Example 115, 1-[3-(2-Fluoropyridin-3-yl)phenyl]-1-(2-isopropylpyridin-4-yl)-1H-isoindol-3-amine]	210
NC1=NC(c2cccc(-c3cccnc3F)c2)(c2ccnc(F)c2)c2ccccc21 (stereo not drawn) [Example 117, 1-(2-Fluoropyridin-4-yl)-1-[3-(2-fluoropyridin-3-yl)phenyl]-1H-isoindol-3-amine]	100
NC1=NC(c2cccc(-c3cccnc3F)c2)(c2ccnc(Cl)c2)c2ccccc21 (stereo not drawn) [Example 121, 1-(2-Chloropyridin-4-yl)-1-[3-(2-fluoropyridin-3-yl)phenyl]-1H-isoindol-3-amine]	80
NC1=NC(c2cccc(-c3cncnc3)c2)(c2ccnc(Cl)c2)c2ccccc21 (stereo not drawn) [Example 122, 1-(2-Chloropyridin-4-yl)-1-(3-pyrimidin-5-ylphenyl)-1H-isoindol-3-amine]	160
COc1ccc(C2(c3ccc(F)c(-c4cncnc4)c3)N=C(N)c3ccccc32)cc1C (stereo not drawn) [Example 127, 1-(4-Fluoro-3-pyrimidin-5-ylphenyl)-1-(4-methoxy-3-methylphenyl)-1H-isoindol-3-amine]	33
COc1ccc(C2(c3ccc(F)c(-c4cccnc4F)c3)N=C(N)c3ccccc32)cc1C (stereo not drawn) [Example 128, 1-[4-Fluoro-3-(2-fluoropyridin-3-yl)phenyl]-1-(4-methoxy-3-methylphenyl)-1H-isoindol-3-amine]	40
NC1=NC(c2ccc(C(F)(F)F)nc2)(c2cccc(-c3cncnc3)c2)c2ccccc21 (stereo not drawn) [Example 130, 1-(3-Pyrimidin-5-ylphenyl)-1-[6-(trifluoromethyl)pyridin-3-yl]-1H-isoindol-3-amine 0.66 acetate]	1300
Cc1nn(C)c(Cl)c1S(=O)(=O)Oc1cccc(C2(c3cc(Cl)nc(Cl)c3)N=C(N)c3ccccc32)c1 (stereo not drawn) [Example 131, 3-[3-Amino-1-(2,6-dichloropyridin-4-yl)-1H-isoindol-1-yl]phenyl 5-chloro-1,3-dimethyl-1H-pyrazole-4-sulfonate]	1070

The next lines start with the values.

IC50 [nM]	Compound
150	N#Cc1cncc(-c2cccc(C3(c4ccncc4)N=C(N)c4ccccc43)c2)c1 (stereo not drawn) [Example 77, 5-[3-(3-Amino-1-pyridin-4-yl-1H-isoindol-1-yl)phenyl]nicotinonitrile acetate]
54	COc1ccc(C2(c3cccc(-c4cccnc4)c3)N=C(N)c3ccc(F)cc32)cc1 (stereo not drawn) [Example 79, 6-Fluoro-1-(4-methoxyphenyl)-1-(3-pyridin-3-ylphenyl)-1H-isoindol-3-amine]
84	COc1ccc(C2(c3cccc(-c4cccc(OC)c4)c3)N=C(N)c3ccc(F)cc32)cc1 (stereo not drawn) [Example 80, 6-Fluoro-1-(3′-methoxybiphenyl-3-yl)-1-(4-methoxyphenyl)-1H-isoindol-3-amine]
26	COc1ccc(C2(c3cccc(-c4cncc(OC)c4)c3)N=C(N)c3ccc(F)cc32)cc1 (stereo not drawn) [Example 81, 6-Fluoro-1-(4-methoxyphenyl)-1-[3-(5-methoxypyridin-3-yl)phenyl]-1H-isoindol-3-amine]
75	NC1=NC(c2ccncc2)(c2cccc(-c3cccnc3)c2)c2cc(F)ccc21 (stereo not drawn) [Example 83, 6-Fluoro-1-pyridin-4-yl-1-(3-pyridin-3-ylphenyl)-1H-isoindol-3-amine]
94	NC1=NC(c2ccncc2)(c2cccc(-c3cncnc3)c2)c2cc(F)ccc21 (stereo not drawn) [Example 84, 6-Fluoro-1-pyridin-4-yl-1-(3-pyrimidin-5-ylphenyl)-1H-isoindol-3-amine]
45	COc1cncc(-c2cccc(C3(c4ccncc4)N=C(N)c4ccc(F)cc43)c2)c1 (stereo not drawn) [Example 85, 6-Fluoro-1-[3-(5-methoxypyridin-3-yl)phenyl]-1-pyridin-4-yl-1H-isoindol-3-amine]
47	NC1=NC(c2ccncc2)(c2cccc(-c3cccnc3F)c2)c2cc(F)ccc21 (stereo not drawn) [Example 86, 6-Fluoro-1-[3-(2-fluoropyridin-3-yl)phenyl]-1-pyridin-4-yl-1H-isoindol-3-amine]
65	COc1ccc(C2(c3cccc(-c4cc(Cl)cc(Cl)c4)c3)N=C(N)c3ccccc32)cc1 (stereo not drawn) [Example 88, 1-(3′,5′-Dichlorobiphenyl-3-yl)-1-(4-methoxyphenyl)-1H-isoindol-3-amine acetate]
220	COc1ccc(F)c(-c2cccc(C3(c4ccncc4F)N=C(N)c4ccccc43)c2)c1 (stereo not drawn) [Example 99, 1-(2′-Fluoro-5′-methoxybiphenyl-3-yl)-1-(3-fluoropyridin-4-yl)-1H-isoindol-3-amine]
220	COc1cccc(-c2cccc(C3(c4ccncc4F)N=C(N)c4ccccc43)c2)c1F (stereo not drawn) [Example 100, 1-(2′-Fluoro-3′-methoxybiphenyl-3-yl)-1-(3-fluoropyridin-4-yl)-1H-isoindol-3-amine]
110	COc1ccc(F)c(-c2cccc(C3(c4ccncc4)N=C(N)c4ccccc43)c2)c1 (stereo not drawn) [Example 103, 1-(2′-Fluoro-5′-methoxybiphenyl-3-yl)-1-pyridin-4-yl-1H-isoindol-3-amine]
59	COc1cccc(-c2cccc(C3(c4ccncc4)N=C(N)c4ccccc43)c2)c1F (stereo not drawn) [Example 104, 1-(2′-Fluoro-3′-methoxybiphenyl-3-yl)-1-pyridin-4-yl-1H-isoindol-3-amine]
110	COc1cc(C2(c3cccc(-c4cccnc4F)c3)N=C(N)c3ccccc32)ccn1 (stereo not drawn) [Example 119, 1-[3-(2-Fluoropyridin-3-yl)phenyl]-1-(2-methoxypyridin-4-yl)-1H-isoindol-3-amine]
560	NC1=NC(c2cncc(F)c2)(c2cccc(-c3cccnc3F)c2)c2ccccc21 (stereo not drawn) [Example 124, 1-(5-Fluoropyridin-3-yl)-1-[3-(2-fluoropyridin-3-yl)phenyl]-1H-isoindol-3-amine]
810	NC1=NC(c2cncc(F)c2)(c2cccc(-c3cncnc3)c2)c2ccccc21 (stereo not drawn) [Example 125, 1-(5-Fluoropyridin-3-yl)-1-(3-pyrimidin-5-ylphenyl)-1H-isoindol-3-amine]
85	NC1=NC(c2ccncc2)(c2cccc(-c3cncnc3)c2)c2cc(Cl)ccc21 (stereo not drawn) [Example 129, 6-Chloro-1-pyridin-4-yl-1-(3-pyrimidin-5-ylphenyl)-1H-isoindol-3-amine]
